Test results published in US9192567B2, “Method for treating eye disease or conditions affecting the posterior segment of the eye” (SANTEN SAS, priority 2006, dated 2015).

Experiment: Intraocular pharmacokinetics of dexamethasone palmitate and dexamethasone following intravitreal administration
Conditions: following IVT injection of 800 ug of prodrug
Description: Analytes and internal standard (roxithromycine) were extracted from the tissues using acetonitrile and separated by reverse phase liquid chromatography with a C8 column and a gradient mobile phase. […] The unweighed linear model was applied.
All concentrations are expressed in ng/g.

time for which therapeutic levels were maintained in the target tissues: at least 2 months
SMILES: C[C@@H]1C[C@H]2[C@@H]3CCC4=CC(=O)C=C[C@]4(C)[C@@]3(F)[C@@H](O)C[C@]2(C)[C@@]1(O)C(=O)CO [D, dexamethasone]
